Reference: patent US8729023B2 (priority 2002, dated 2014)
Where two headings read alike, the source gives them in different places. *1 amine or outer side, *2 acyl side, *3 side chain or, on linkers, in order; H or OH if unused. Where a SMILES comes first, the peptide text is derived from it. Suc = O=C(CCC(=O)[*:2])[*:1]

Tests used:
[1] = test system: JHU-4 (MAT-LyLu) prostate tumor; conditions: IRL1620 3 nmol/kg alone; day 16
MNU-induced breast tumor = test: Effect of IRL1620 on bio-distribution of [^3H] paclitaxel in tumor and major organs of breast tumor bearing rats; conditions: IRL1620 3 nmol/kg
[2] = test system: human melanoma cells (UISO-MEL-2) tumor; conditions: melanoma mice
[3] = test system: MNU-induced breast tumors; conditions: IRL1620 3 nmol/kg alone; 5 doses; 30 days after final dose
[4] = test system: JHU-4 (MAT-LyLu) prostate tumor; conditions: IRL1620 3 nmol/kg alone; day 19
[5] = Effect of IRL1620 on plasma pharmacokinetics of paclitaxel, HPLC-UV; format: in vivo, rat; conditions: normal or tumor bearing rats; paclitaxel i.v. 3 mg/kg 15 minutes after IRL1620 3 nmol/kg
Method: Virgin female Sprague Dawley rats (Harlan Co., Madison, Wis.), 48 days old (120-140 g) were used for this study. Upon arrival, all rats were housed three to a cage, in a room with controlled temperature (23±1° C.), humidity (50±10%) and artificial light (0600-1800 hr). The rats were given food and water ad libitum. The experiments were begun only after the rats have been acclimatized to the environment for at least 4 days.
N-methyl-n-nitrosourea (MNU) was administered at a dose of 50 mg/kg, i.p. and rats were palpated twice weekly. Once tumors reached about 75-100 mm^3, pharmacokinetic studies were performed.
HPLC-UV studies. […]
Plasma samples were analyzed for paclitaxel using an HPLC system. […] A 100 μL (lower standard curve and samples collected after IV administration) aliquot of the reconstituted material was injected into a 4 mm NovaPak 150×3.9 mm C18 column (Waters Associates, Milford, Mass.) preceded by a 4 mm NovaPak 20×3.9 mm C18 precolumn using a Waters 2695 separations module connected to a Waters 2487 absorbance detector set at 227 nm. […] Plasma concentrations for paclitaxel were calculated from the ratio of the area of the paclitaxel peak to the area of the N-cyclohexyl benzamide peak using least-squares linear regression and weighting by 1/x. Within day and between days variability measured by a coefficient of variation was <10%. […]

[6] = test system: JHU-4 (MAT-LyLu) prostate tumor; test: Effect of IRL1620 on [^14C]doxorubicin concentration in tumor and organs of prostate tumor bearing rats; format: in vivo, rat; conditions: for increase in concentration of [^14C]doxorubicin in tumor compared to saline treated rats: sacrifice 3 hours after
Method: Prostate tumors were induced in male Copenhagen rats using JHU-4 (MAT-LyLu) cells obtained from ATCC (Manassas, Va.). See Gaddipati et al., J Exp Ther Oncol, 4(3): 203-12 (2004) which is hereby incorporated by reference. The cells were maintained in RPMI 1640 medium supplemented with fetal bovine serum (10%) in a humidified incubator containing 5% CO2 at 37° C. Hair was shaved from the dorsal side of the neck, and animals were inoculated with 10,000 JHU-4 (MAT-LyLu) cells in 100 μl phosphate buffered saline by subcutaneous (s.c.) injection. Tumor appearance and location was monitored by manual palpation and tumor diameters were measured with a digital caliper. Experimental procedures began once tumor size reached about 200 mm^3.
Biodistribution Study. Tumor bearing rats were randomly grouped (N=6/group) to receive saline or IRL1620 (1, 3 or 6 nmol/kg) via the tail vein in a final volume of 0.2 ml. Rats from each group then received [^14C]doxorubicin (1 μCi/rat) i.v. in a final volume of 1.0 ml 15 minutes after saline or IRL1620 administration. Animals were then sacrificed 3 hours after [^14C]doxorubicin administration. The concentration of [^14C]doxorubicin in the tumor, heart, brain, kidneys, liver, lungs, bone marrow, prostate, skeletal muscles and spleen were examined. Specifically, tumor and organs were sliced into small pieces. The femurs from both legs were separated and weighed with bone marrow flushed out using a syringe containing tissue solubilizer. About 500 mg of tissue or tumor was placed in separate vials containing tissue solubilizer (6 ml) and incubated in a water bath at about 50° C. The vials were removed from the water bath after the tissue or tumor was dissolved and 1.2 ml of 10% glacial acetic acid was added. The contents of the vial were then equally divided into 3 vials and 15 ml of liquid scintillation cocktail (Safety Solve, RPI Corp, Chicago, Ill.) was added to each vial and kept overnight for equilibration. The radioactivity in the tubes was counted using a liquid scintillation counter (Beckman Coulter, LS 6500).

[7] = paclitaxel plasma, three compartmental model, tumor bearing rats, after vehicle or IRL1620 3 nmol/kg

CC[C@H](C)[C@H](NC(=O)[C@H](CC(=O)O)NC(=O)[C@H](CC(C)C)NC(=O)[C@H](Cc1c[nH]cn1)NC(=O)[C@H](C)NC(=O)[C@H](Cc1ccccc1)NC(=O)[C@H](Cc1ccc(O)cc1)NC(=O)[C@@H](NC(=O)[C@H](C)NC(=O)[C@H](CCC(=O)O)NC(=O)[C@H](CCC(=O)O)NC(=O)[C@H](CC(=O)O)NC(=O)CCC(=O)O)C(C)C)C(=O)N[C@H](C(=O)N[C@@H](Cc1c[nH]c2ccccc12)C(=O)O)[C@@H](C)CC [IRL1620, N-suc-[Glu9, Ala11, 15]ET-1 (8-21)] (Suc-DEEAVYFAHLDIIW-OH)
body weight [1]: 202.2 ± 7.28 g
percent difference in body weight gain from the beginning of the experiment [1]: 14.19±1.66%
accumulation of paclitaxel in the liver, lungs, kidneys and spleen compared to control animals (MNU-induced breast tumor): did not significantly alter
increase in tumor paclitaxel concentration compared to saline treated rats (MNU-induced breast tumor; [^3H] paclitaxel administered 15 minutes after IRL1620, sacrifice 3 hours after paclitaxel): 277.1%
increase in tumor paclitaxel concentration compared to saline treated rats (MNU-induced breast tumor; [^3H] paclitaxel administered 240 minutes after IRL1620): 34.7%
accumulation of [^3H]paclitaxel in the heart, kidneys, liver, lungs or spleen compared to saline treated animals ([2]; IRL1620 3 nmol/kg): did not produce significant increases
increase in tumor [^3H]paclitaxel compared to vehicle treated mice ([2]; IRL1620 3 nmol/kg 15 minutes before [^3H]paclitaxel): 572.99%
tumor [^3H]paclitaxel concentration ([2]; IRL1620 3 nmol/kg 15 minutes before [^3H]paclitaxel, sacrifice 3 hours after): 274.28 nmol/g tissue
increase in body weight compared to baseline [3]: < 10%
body weight [4]: 175.72 ± 2.35 g
pharmacokinetic profile of paclitaxel [5]: not affected
change in the uptake of [^14C]doxorubicin in tumor or other tissues ([6]; 1 nmol/kg IRL1620 15 minutes before [^14C]doxorubicin): did not produce any significant change
increase in concentration of [^14C]doxorubicin in tumor compared to saline treated rats ([6]; 3 nmol/kg IRL1620 15 minutes before [^14C]doxorubicin): 115.85%
increase in concentration of [^14C]doxorubicin in tumor compared to saline treated rats ([6]; 6 nmol/kg IRL1620 15 minutes before [^14C]doxorubicin): 80.02%
accumulation of [^14C]doxorubicin in the heart, brain, kidneys, liver, lungs, bone marrow, prostate, skeletal muscles or spleen compared to control animals ([6]; IRL1620 1, 3 or 6 nmol/kg): No dose of IRL1620 produced significant increases
effect on the pharmacokinetic profile of paclitaxel (non-compartmental analysis, tumor bearing rats, IRL1620 3 nmol/kg i.v. 15 minutes before paclitaxel): did not affect
Lambda (paclitaxel plasma, non-compartmental, tumor bearing rats, paclitaxel i.v. 15 minutes after vehicle or IRL1620 3 nmol/kg): 0.10 ± 0.05
K10 [7]: 1.72 ± 0.57
K12 [7]: 34.93 ± 23.26
K13 [7]: 3.92 ± 1.88
paclitaxel compartmental pharmacokinetic parameters in the IRL1620 treated group versus the vehicle treated group (three compartmental model, IRL1620 3 nmol/kg 15 minutes before paclitaxel): not significantly different
